Reference: the supplement of paper PMC10883282
± gives the standard deviation of the averaged measurements.

Columns and labels:
Experiment in all cases: relative viability vs DMSO control (72 h) (fraction); higher = more viable cells
HT1080 = test system: HT1080
Outline: (§1)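 Sarcoma cell lines were plated in 384 wells to reach 80–90% confluence, treated after 24 h with 2.5 µl of serially diluted compound and held 72 h at 37 °C, 5% CO2. Relative viability was taken as percent growth from ATPLite readings, averaged over up to triplicate wells. The values were rescaled so that 1 marks full and 0 marks none.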

KHOS-NP = test system: KHOS-NP
Outline: as §1

RD-ES = test system: RD-ES
Outline: as §1

SW684 = test system: SW684
Outline: as §1

SYO-1 = test system: SYO-1
Outline: as §1

COc1cc2ncnc(Nc3ccc(F)c(Cl)c3)c2cc1NC(=O)/C=C/CN1CCCCC1 [Dacomitinib]
relative viability
Details	HT1080	KHOS-NP	RD-ES	SW684	SYO-1
0.00017 µM	1.12 ± 0.029	1.09 ± 0.029	1.02 ± 0.017	1.22 ± 0.061	1.02 ± 0.044
0.00051 µM	1.11 ± 0.044	1.09 ± 0.025	1.01 ± 0.03	1.23 ± 0.039	1.02 ± 0.037
0.00152 µM	1.11 ± 0.025	1.1 ± 0.019	1.01 ± 0.017	1.208 ± 0.012	1.01 ± 0.027
0.00457 µM	1.11 ± 0.016	1.09 ± 0.022	1.02 ± 0.025	1.18 ± 0.017	1.02 ± 0.051
0.01372 µM	1.08 ± 0.028	1.08 ± 0.024	1.02 ± 0.037	1.18 ± 0.071	1 ± 0.05
0.04115 µM	1.12 ± 0.051	1.086 ± 0.0098	1.01 ± 0.013	1.15 ± 0.036	1.01 ± 0.057
0.1235 µM	1.12 ± 0.033	1.08 ± 0.032	0.992 ± 0.022	1.22 ± 0.072	0.986 ± 0.045
0.3704 µM	1.13 ± 0.021	1.08 ± 0.03	0.9359 ± 0.0071	1.08 ± 0.077	0.888 ± 0.029
1.111 µM	1.15 ± 0.025	1.08 ± 0.015	0.832 ± 0.032	1.01 ± 0.049	0.824 ± 0.013
3.333 µM	0.769 ± 0.047	0.985 ± 0.044	0.474 ± 0.032	0.599 ± 0.03	0.287 ± 0.027
10 µM	0.0364 ± 0.0086	0.0233 ± 0.0027	0.0093 ± 0.0018	-0.00213 ± 0.0063	-0.0103 ± 0.0036

Cc1nc(Nc2ncc(C(=O)Nc3c(C)cccc3Cl)s2)cc(N2CCN(CCO)CC2)n1 [Dasatinib]
relative viability
Details	HT1080	KHOS-NP	RD-ES	SW684	SYO-1
0.00017 µM	1.03 ± 0.011	1.023 ± 0.0082	0.989 ± 0.026	1.166 ± 0.01	0.917 ± 0.011
0.00051 µM	1.05 ± 0.049	1.03 ± 0.015	0.966 ± 0.03	1.15 ± 0.018	0.923 ± 0.021
0.00152 µM	1.04 ± 0.025	1 ± 0.024	0.966 ± 0.015	1.18 ± 0.037	0.91 ± 0.028
0.00457 µM	1.01 ± 0.015	0.993 ± 0.04	0.962 ± 0.013	1.18 ± 0.016	0.865 ± 0.05
0.01372 µM	1.02 ± 0.0092	0.923 ± 0.034	0.958 ± 0.023	1.15 ± 0.02	0.779 ± 0.043
0.04115 µM	0.989 ± 0.027	0.872 ± 0.022	0.949 ± 0.019	1 ± 0.013	0.704 ± 0.038
0.1235 µM	0.924 ± 0.026	0.721 ± 0.044	0.9274 ± 0.0062	0.739 ± 0.021	0.645 ± 0.021
0.3704 µM	0.895 ± 0.029	0.525 ± 0.028	0.918 ± 0.031	0.625 ± 0.024	0.573 ± 0.0094
1.111 µM	0.907 ± 0.018	0.436 ± 0.015	0.92 ± 0.049	0.6057 ± 0.004	0.528 ± 0.0077
3.333 µM	0.873 ± 0.017	0.327 ± 0.014	0.759 ± 0.097	0.619 ± 0.0096	0.415 ± 0.011
10 µM	0.535 ± 0.046	0.237 ± 0.013	0.483 ± 0.024	0.457 ± 0.0087	0.188 ± 0.0042

COc1cc(OC)cc(N(CCNC(C)C)c2ccc3ncc(-c4cnn(C)c4)nc3c2)c1 [Erdafitinib]
relative viability
Details	HT1080	KHOS-NP	RD-ES	SW684	SYO-1
0.00017 µM	1.06 ± 0.028	1.07 ± 0.015	0.963 ± 0.04	1.1 ± 0.073	0.933 ± 0.068
0.00051 µM	1.09 ± 0.049	1.06 ± 0.023	0.971 ± 0.013	1.17 ± 0.069	0.814 ± 0.088
0.00152 µM	1.05 ± 0.051	1.05 ± 0.021	0.929 ± 0.025	1.13 ± 0.05	0.734 ± 0.077
0.00457 µM	1.07 ± 0.029	1.06 ± 0.016	0.96 ± 0.031	1.1 ± 0.087	0.674 ± 0.087
0.01372 µM	1.02 ± 0.044	1.04 ± 0.035	0.917 ± 0.022	1.08 ± 0.016	0.588 ± 0.086
0.04115 µM	1.05 ± 0.038	1.04 ± 0.025	0.873 ± 0.027	1.04 ± 0.023	0.519 ± 0.053
0.1235 µM	1.08 ± 0.062	1.02 ± 0.054	0.873 ± 0.043	1.06 ± 0.031	0.451 ± 0.016
0.3704 µM	1.06 ± 0.065	1.01 ± 0.046	0.861 ± 0.027	1.09 ± 0.045	0.396 ± 0.011
1.111 µM	1.02 ± 0.093	0.999 ± 0.038	0.783 ± 0.011	0.998 ± 0.038	0.342 ± 0.008
3.333 µM	0.959 ± 0.029	0.943 ± 0.061	0.5562 ± 0.0023	0.739 ± 0.014	0.248 ± 0.018
10 µM	0.41 ± 0.024	0.638 ± 0.049	0.148 ± 0.042	0.39 ± 0.013	-0.0109 ± 0.0042
